In brackets after ≈: the same amount, converted by molar mass. Activity calls are given as the source filed them. No cut-off for these calls is given here. Bridge positions count the residues as written; N and C are the ends. Square brackets hold non-standard residues; d marks the D form. Peptide text beside a SMILES is read from it. S5 = C=CCCC[C@](C)(N)C(=O)O
Assays:
Staphylococcus aureus = test: Antibacterial activity against Staphylococcus aureus ATCC 25923 assessed as inhibition of bacterial growth measured after 24 hrs by broth microdilution method; assay type: functional
[1] = Hemolytic activity in human RBC assessed as hemolysis incubated for 1 hr by microplate reader; assay type: toxicity, cell-based, Erythrocyte; details: erythrocyte, 1 h
Pseudomonas aeruginosa = test: Antibacterial activity against Carbapenem-resistant Pseudomonas aeruginosa assessed as inhibition of bacterial growth measured after 24 hrs by broth microdilution method; assay type: functional
Shigella flexneri = test: Antibacterial activity against Shigella flexneri 301 assessed as inhibition of bacterial growth measured after 24 hrs by broth microdilution method; assay type: functional
NIH3T3 = test: Cytotoxicity against mouse NIH3T3 cells assessed as cell viability measured upto 50 uM incubated for 24 hrs by CCK-8 assay; assay type: toxicity, cell-based; details: nih3t3, 24 h
Escherichia coli [2] = test: Antibacterial activity against Escherichia coli assessed as reduction in CFU at 5 uM measured upto 60 mins by Time-killing assay; assay type: functional, organism-based
Cell membrane [3] = test: Induction of Outer membrane damage in Escherichia coli assessed as increase in NPN intensity at 5 uM measured after 24 hrs incubation by microplate reader based outer membrane permeability assay; assay type: subcellular
Cell membrane [4] = test: Induction of Inner membrane damage in Escherichia coli assessed as increase in […] ONPG intensity at 5 uM measured after 24 hrs incubation by microplate reader based inner membrane permeability assay; assay type: subcellular
Escherichia coli [5] = test: Induction of metabolism related pathways in Escherichia coli assessed as protein synthesis pathway mRNAs at 12.5 uM measured after 2 hrs incubation by PCR analysis; assay type: functional, organism-based
Escherichia coli [6] = test: Induction of multiple envelope stress pathway related pathways in Escherichia coli assessed as change in FimA gene expression at 12.5 uM measured after 2 hrs incubation by PCR analysis; assay type: functional, organism-based
Escherichia coli [7] = test: Induction of assembly related pathways in Escherichia coli assessed as change in BamA gene expression at 12.5 uM measured after 2 hrs incubation by PCR analysis; assay type: functional, organism-based
Escherichia coli [8] = test: Induction of LPS transport pathway related genes in Escherichia coli assessed as change in LptA gene expression at 12.5 uM measured after 2 hrs incubation by PCR analysis; assay type: functional, organism-based
Escherichia coli [9] = test: Induction of LPS transport pathway related genes in Escherichia coli assessed as change in LptB gene expression at 12.5 uM measured after 2 hrs incubation by PCR analysis; assay type: functional, organism-based
Escherichia coli [10] = test: Induction of LPS transport pathway related genes in Escherichia coli assessed as change in LptD gene expression at 12.5 uM measured after 2 hrs incubation by PCR analysis; assay type: functional, organism-based
Escherichia coli [11] = test: In vivo antibacterial activity against Escherichia coli intraperitoneally injected into C57BL/6 mouse peritonitis model assessed as reduction in bacterial load in blood at 2.5 mg/kg, ip measured after 48 hrs relative to control; assay type: functional, organism-based
Escherichia coli [12] = test: In vivo antibacterial activity against Escherichia coli intraperitoneally injected into C57BL/6 mouse peritonitis model assessed as reduction in bacterial load in lung at 2.5 mg/kg, ip measured after 48 hrs relative to control; assay type: functional, organism-based

For `CC[C@H](C)[C@H](NC(=O)CNC(=O)[C@H](CC(=O)O)NC(=O)[C@H](CCCNC(=N)N)NC(=O)[C@@H](NC(=O)[C@H](CC(N)=O)NC(=O)[C@H](CCC(N)=O)NC(=O)CNC(=O)[C@@H](NC(=O)[C@H](CCCCN)NC(=O)[C@H](CCC(=O)O)NC(=O)[C@@H](NC(=O)[C@H](CCCCN)NC(=O)[C@H](CCCCN)NC(=O)[C@H](Cc1ccccc1)NC(=O)[C@H](CC(C)C)NC(=O)[C@H](CCCCN)NC(=O)[C@H](Cc1c[nH]c2ccccc12)NC(=O)[C@H](CCCCN)NC(C)=O)[C@@H](C)CC)C(C)C)[C@@H](C)CC)C(=O)N[C@H](C(=O)N[C@@H](CCCCN)C(=O)N[C@@H](C)C(=O)NCC(=O)N1CCC[C@H]1C(=O)N[C@@H](C)C(=O)N[C@H](C(=O)N[C@@H](C)C(=O)N[C@H](C(=O)N[C@H](C(=O)NCC(=O)N[C@@H](CCC(N)=O)C(=O)N[C@@H](C)C(=O)N[C@@]1(C)CCC/C=C\CCC[C@@](C)(C(N)=O)NC(=O)[C@H](C)NC(=O)[C@H]([C@@H](C)CC)NC(=O)[C@H](CCC(N)=O)NC1=O)C(C)C)C(C)C)C(C)C)[C@@H](C)CC` (Ac-KWKLFKKIEKVGQNIRDGIIKAGPAVAVVGQA[S5]QIA[S5]-NH2; staple (Z) 33-37), the MIC (Staphylococcus aureus) was 3.13 µM (≈ 12.7 µg/mL), the Activity [1] was “Non-toxic” and the MIC (Pseudomonas aeruginosa) was greater than 100 µM. For the same compound, the MIC (Shigella flexneri) was 1.56 µM (≈ 6.34 µg/mL), the Activity (NIH3T3) was “Non-toxic” and the Activity (Escherichia coli [2]) was “Active”. For the same compound, the Activity (Cell membrane [3]) was “Active”, the Activity (Cell membrane [4]) was “Active” and the Activity (Escherichia coli [5]) was “Active”. For the same compound, the Activity (Escherichia coli [6]) was “Active”, the Activity (Escherichia coli [7]) was “Active” and the Activity (Escherichia coli [8]) was “Active”. For the same compound, the Activity (Escherichia coli [9]) was “Active”, the Activity (Escherichia coli [10]) was “Active” and the Activity (Escherichia coli [11]) was “Active; Compound Showed Enhanced Bacterial Elimination Than Cec-0 And Compound Showed Comparable Bacterial Elimination To Polymyxin B”. For the same compound, the Activity (Escherichia coli [12]) was “Active; Compound Showed Enhanced Bacterial Elimination Than Cec-0”.
